Values of other authors, collected in patent EP0413839A1, “GHRH analogs” (The Administrators of The Tulane Educational Fund, priority 1989, dated 1991).
No end group written: not given here.

Details: percent of the potency of hGRF

## hGRF(1-37)-NH₂ (YADAIFTNSYRKVLGQLSARKLLQDIMSRQQGESNQE-NH2; UniProt P01286 32-68, looked up, fragment) [fragment of human growth hormone releasing factor terminated with an amide group]
  potency of hGRF: at least 50%

## hGRF(1-27)-NH₂ (YADAIFTNSYRKVLGQLSARKLLQDIM-NH2; UniProt P01286 32-58, looked up, fragment) [shortened hGRF fragment with amidated C-terminus]
  potency of hGRF: 1.12%

## hGRF(1-23)-NH₂ (YADAIFTNSYRKVLGQLSARKLL-NH2; UniProt P01286 32-54, looked up, fragment) [shortened hGRF fragment with amidated C-terminus]
  potency of hGRF: 0.24%

## hGRF(1-29)OH
  potency of hGRF: 12.6%
